Like-named read-outs stand apart in the source and are kept apart here.
What was measured:
PC3 cells [1] = assay: PC3 cell proliferation, 2D activity assay (Cell Titer-Lumi, 72 h); assay type: cell-based, human; settings: Homo sapiens, PC-3, read-out: 2D inhibitory activity against PC3 cells IC50
PC3 cells [2] = assay: PC3 cell proliferation, 3D activity assay (3D culture, 14 days); assay type: cell-based, human; settings: Homo sapiens, PC-3, 336 h, read-out: 3D inhibitory activity against PC3 cells IC50
FAK recombinant protein = FAK recombinant protein (Homo sapiens (Human), UniProt Q05397); assay: Inhibitory activity against FAK enzyme (HTRF, TK substrate); assay type: biochemical
Method: A compound serially diluted with DMSO was mixed with a FAK recombinant protein. After the mixture was left to stand at room temperature for 10 min, a biotin-labeled TK substrate (TK) and ATP were added. […] The inhibition percentage and IC50 of the compound were calculated compared to the DMSO control group.

PC3 cells [3] = assay: Inhibition of PC3 cell low adsorption (adherent cell count, 4 h); assay type: cell-based; settings: Homo sapiens, PC-3; 4 h treatment; read-out: IC50 against PC3 cell low adsorption
Method: PC3 cells were seeded at 8000 cells/well. 4 h after the cells were treated with a compound, the number of adherent cells was counted. The inhibition percentage and IC50 of the compound were calculated compared to the DMSO group.

[4] = In vivo pharmacokinetic experiment in CD-1 mice; settings: mouse, plasma, CD-1 female mice; for Vd: read-out: Vdss
Method: […] The mice were fasted for at least 12 h before the administration and given food 4 h after the administration, and they were given ad libitum access to water during the experiment.
On the day of the experiment, animals in the intravenous group were given the corresponding compound by single injection via the tail vein at an administration volume of 10 mL/kg; and animals in the oral group were given the corresponding compound by single intragastric injection at an administration volume of 10 mL/kg. The animals were weighed before administration, and the administration volume was calculated according to the body weight. The sample collection time points were 0.083 h, 0.167 h, 0.5 h, 1 h, 2 h, 4 h, 8 h, and 24 h. About 200 μL of whole blood was collected through the orbital venous plexus at each time point and used to prepare plasma for concentration determination by high-performance liquid chromatography-tandem mass spectrometry (LC-MS/MS). The plasma concentrations were processed using a non-compartmental model of Winnolin pharmacokinetic software, and the pharmacokinetic parameters were calculated using a linear-log trapezoidal method.

[5] = test system: phosphorylation at the FAK 397 site; assay: Inhibition of Y397 phosphorylation in PC3 cells (ELISA); assay type: cell-based; settings: Homo sapiens, PC-3, 3 h treatment, read-out: IC50 against Y397 phosphorylation
Method: PC3 cells were seeded at 8000 cells/well. […] The inhibition percentage and IC50 of the compound were calculated compared to the DMSO group.

[6] = intravenous, injection (1 mg/kg)

FAK recombinant protein, sequence (Q05397 whole entry): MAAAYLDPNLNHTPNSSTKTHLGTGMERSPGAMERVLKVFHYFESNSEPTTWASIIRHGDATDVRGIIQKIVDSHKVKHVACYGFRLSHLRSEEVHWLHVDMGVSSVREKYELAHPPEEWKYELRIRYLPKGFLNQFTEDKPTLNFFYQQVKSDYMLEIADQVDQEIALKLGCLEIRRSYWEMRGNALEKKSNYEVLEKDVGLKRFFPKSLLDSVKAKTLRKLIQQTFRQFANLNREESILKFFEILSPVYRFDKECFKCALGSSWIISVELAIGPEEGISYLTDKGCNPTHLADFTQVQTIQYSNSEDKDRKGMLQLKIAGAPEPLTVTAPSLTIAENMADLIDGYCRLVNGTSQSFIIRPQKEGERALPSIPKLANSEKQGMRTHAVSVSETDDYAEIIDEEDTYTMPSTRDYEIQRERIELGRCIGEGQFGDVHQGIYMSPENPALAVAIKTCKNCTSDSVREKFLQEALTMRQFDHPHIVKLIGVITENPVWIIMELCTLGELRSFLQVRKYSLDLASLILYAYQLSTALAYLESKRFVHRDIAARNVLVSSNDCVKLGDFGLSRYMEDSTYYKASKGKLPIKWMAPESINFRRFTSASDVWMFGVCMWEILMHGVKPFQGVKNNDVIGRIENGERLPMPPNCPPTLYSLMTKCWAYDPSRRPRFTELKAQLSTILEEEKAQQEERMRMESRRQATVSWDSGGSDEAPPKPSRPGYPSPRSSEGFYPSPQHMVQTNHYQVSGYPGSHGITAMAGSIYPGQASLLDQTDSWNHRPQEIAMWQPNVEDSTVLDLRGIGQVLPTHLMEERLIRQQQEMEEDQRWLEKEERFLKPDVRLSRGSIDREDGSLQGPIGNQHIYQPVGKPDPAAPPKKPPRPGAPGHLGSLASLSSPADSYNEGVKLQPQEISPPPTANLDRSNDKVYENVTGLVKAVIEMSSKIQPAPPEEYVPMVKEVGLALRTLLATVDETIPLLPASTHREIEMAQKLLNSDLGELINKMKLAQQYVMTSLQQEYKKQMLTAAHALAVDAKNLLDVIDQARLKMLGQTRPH

SMILES	IC50 (PC3 cells [1])	IC50 (PC3 cells [2])	IC50 (FAK recombinant protein)	IC50 (PC3 cells [3])	also measured
CNC(=O)c1ccc(Nc2ncc(C(F)(F)F)c(Oc3cccc4c3C(=O)N(C)C43CC3)n2)cc1 [Compound 1, N-methyl-4-((4-((2′-methyl-3′-oxospiro[cyclopropane-1,1′-isoindolin]-4′-yl)oxy)-5-(trifluoromethyl)pyrimidin-2-yl)amino)benzamide]	> 2000 nM	10.8 nM	< 20 nM	21.1 nM	–
COc1cc(C(=O)NC2CCN(C)CC2)ccc1Nc1ncc(C(F)(F)F)c(Oc2cccc3c2C(=O)N(C)C32CC2)n1 [Compound 3, 3-methoxy-4-((4-((2′-methyl-3′-oxospiro[cyclopropane-1,1′-isoindolin]-4′-yl)oxy)-5-(trifluoromethyl)pyrimidin-2-yl)amino)-N-(1-methylpiperidin-4-yl)benzamide]	> 2000 nM	0.45 nM	–	3.14 nM	AUC(0-t) [4, 6]: 248 ng·h/mL; clearance [4, 6]: 67.1 mL/min/kg; half-life [4, 6]: 2.14 h; Vd [4, 6]: 6.14 L/kg; AUC(0-t) ([4]; oral administration (10 mg/kg)): 190 ng·h/mL; Cmax ([4]; oral administration (10 mg/kg)): 57.2 ng/mL; Tmax ([4]; oral administration (10 mg/kg)): 4 h; bioavailability ([4]; oral administration (10 mg/kg)): 7.94%
COc1cc(C(=O)NC2(C)CCN(C)CC2)ccc1Nc1ncc(C(F)(F)F)c(Oc2cccc3c2C(=O)N(C)C32CC2)n1 [Compound 6]	> 2000 nM	< 5 nM	< 20 nM	2.67 nM	–
COc1cc(C(=O)NC2CC3(CCN(C)CC3)C2)c(F)cc1Nc1ncc(C(F)(F)F)c(Oc2cccc3c2C(=O)N(C)C32CC2)n1 [Compound 8, 2-fluoro-5-methoxy-4-((4-((2′-methyl-3′-oxospiro[cyclopropane-1,1′-isoindolin]-4′-yl)oxy)-5-(trifluoromethyl)pyrimidin-2-yl)amino)-N-(7-methyl-7-azaspiro[3.5]nonan-2-yl)benzamide]	> 2000 nM	0.96 nM	< 20 nM	7.54 nM	–
COc1cc(C(=O)NC2COC3(CCN(C)C3)C2)ccc1Nc1ncc(C(F)(F)F)c(Oc2cccc3c2C(=O)N(C)C32CC2)n1 (stereo not shown) [Compound 27]	> 2000 nM	< 5 nM	< 20 nM	11.7 nM	–
CN1C(=O)c2c(Oc3nc(Nc4ccc5c(c4)CC(=O)N5)ncc3C(F)(F)F)cccc2C12CC2 [Compound 69]	> 2000 nM	8.52 nM	< 20 nM	13.4 nM	–
CN1C(=O)c2c(Oc3nc(Nc4ccc5c(c4)CCNC5=O)ncc3C(F)(F)F)cccc2C12CC2 [Compound 71]	> 2000 nM	5.18 nM	< 20 nM	16.4 nM	–
COc1cc(N2CCOCC2)ccc1Nc1ncc(C(F)(F)F)c(Oc2cccc3c2C(=O)N(C)C32CC2)n1 [Compound 77]	> 10000 nM	4.88 nM	< 20 nM	27.2 nM	–
COc1cc(N2CCC(N3CCN(C)CC3)CC2)ccc1Nc1ncc(C(F)(F)F)c(Oc2cccc3c2C(=O)N(C)C32CC2)n1 [Compound 78]	> 10000 nM	0.78 nM	< 20 nM	5.83 nM	IC50 [5]: < 0.01 nM
COc1cc(CN2CCN(C)CC2)ccc1Nc1ncc(C(F)(F)F)c(Oc2cccc3c2C(=O)N(C)C32CC2)n1 [Compound 82]	> 2000 nM	5 to 50 nM	< 20 nM	6.29 nM	–
CN1Cc2cc(Nc3ncc(C(F)(F)F)c(Oc4cccc5c4C(=O)N(C)C54CC4)n3)cc3c2C(CCC3)C1 (stereo not shown) [Compound 88]	> 10000 nM	1.78 nM	< 20 nM	42.4 nM	–
CN1Cc2cc(Nc3ncc(C(F)(F)F)c(Oc4cccc5c4C(=O)N(C)C54CC4)n3)cc3c2C(CCO3)C1 (stereo not shown) [Compound 89]	> 10000 nM	5 to 50 nM	< 20 nM	36.2 nM	–
Cc1cc(Nc2ncc(C(F)(F)F)c(Oc3cccc4c3C(=O)N(C)C43CC3)n2)n(C(C)C)n1 [Compound 91]	> 2000 nM	5 to 50 nM	< 20 nM	36.4 nM	–
CN1C(=O)c2c(Oc3nc(Nc4cc5n(n4)CCC5)ncc3C(F)(F)F)cccc2C12CC2 [Compound 92, 4′-((2-((5,6-dihydro-4H-pyrrolo[1,2-b]pyrazol-2-yl)amino)-5-(trifluoromethyl)pyrimidin-4-yl)oxy)-2′-methylspiro[cyclopropane-1,1′-isoindolin]-3′-one]	> 2000 nM	5 to 50 nM	< 20 nM	62 nM	–
COc1cc(C(=O)NC2CCN(C)CC2)ccc1Nc1ncc(Cl)c(Oc2cccc3c2C(=O)N(C)C32CC2)n1 [Compound 114, 4-((5-chloro-4-((2′-methyl-3′-oxospiro[cyclopropane-1,1′-isoindolin]-4′-yl)oxy)pyrimidin-2-yl)amino)-3-methoxy-N-(1-methylpiperidin-4-yl)benzamide]	> 2000 nM	1.09 nM	< 20 nM	2.85 nM	IC50 [5]: 0.39 nM
COc1cc(N2CCC(N3CCN(C)CC3)CC2)c(F)cc1Nc1ncc(C(F)(F)F)c(Oc2cccc3c2C(=O)N(C)C32CC2)n1 [Compound 121, 4′-((2-((5-fluoro-2-methoxy-4-(4-(4-methylpiperazin-1-yl)piperidin-1-yl)phenyl)amino)-5-(trifluoromethyl)pyrimidin-4-yl)oxy)-2′-methylspiro[cyclopropane-1,1′-isoindolin]-3′-one]	> 2000 nM	< 5 nM	< 20 nM	7.2 nM	–
COc1cc(N2CCC(N3CCN(C)CC3)CC2)ccc1Nc1ncc(Cl)c(Oc2cccc3c2C(=O)N(C)C32CC2)n1 [Compound 139]	> 2000 nM	1.7 nM	< 20 nM	5.2 nM	IC50 [5]: 0.56 nM
COc1cc(N2CCN(C)CC2)ccc1Nc1ncc(Cl)c(Oc2cccc3c2C(=O)N(C)C32CC2)n1 [Compound 141]	> 2000 nM	5 to 50 nM	< 20 nM	13.9 nM	–
COc1cc(CN(C)C2CCN(C)CC2)ccc1Nc1ncc(Cl)c(Oc2cccc3c2C(=O)N(C)C32CC2)n1 [Compound 154]	> 2000 nM	5 to 50 nM	< 20 nM	6.9 nM	–
COc1cc(N2CC3(CCN(C)CC3)C2)ccc1Nc1ncc(Br)c(Oc2cccc3c2C(=O)N(C)C32CC2)n1 [Compound 177, 4′-((5-bromo-2-((2-methoxy-4-(7-methyl-2,7-diazaspiro[3.5]nonan-2-yl)phenyl)amino)pyrimidin-4-yl)oxy)-2′-methylspiro[cyclopropane-1,1′-isoindolin]-3′-one]	> 2000 nM	0.38 nM	< 20 nM	1.86 nM	IC50 [5]: 0.02 nM; AUC(0-t) ([4]; iv, injection (1 mg/kg)): 1110 ng·h/mL; clearance ([4]; iv, injection (1 mg/kg)): 15 mL/min/kg; half-life ([4]; iv, injection (1 mg/kg)): 5.89 h; Vd ([4]; iv, injection (1 mg/kg)): 7.51 L/kg; AUC(0-t) ([4]; oral administration (10 mg/kg)): 7450 ng·h/mL; Cmax ([4]; oral administration (10 mg/kg)): 815 ng/mL; Tmax ([4]; oral administration (10 mg/kg)): 2 h; bioavailability ([4]; oral administration (10 mg/kg)): 67%; half-life ([4]; oral administration (10 mg/kg)): 3.37 h
COc1cc(N2CC3(CCN(C)CC3)C2)ccc1Nc1ncc(C#N)c(Oc2cccc3c2C(=O)N(C)C32CC2)n1 [Compound 196, 2-((2-methoxy-4-(7-methyl-2,7-diazaspiro[3.5]nonan-2-yl)phenyl)amino)-4-((2′-methyl-3′-oxospiro[cyclopropane-1,1′-isoindolin]-4′-yl)oxy)pyrimidine-5-carbonitrile]	> 2000 nM	0.33 nM	< 20 nM	1.6 nM	IC50 [5]: 0.05 nM
COc1cc(N2CC3(CCN(C)CC3)C2)c(F)cc1Nc1ncc(C#N)c(Oc2cccc3c2C(=O)N(C)C32CC2)n1 [Compound 197]	> 2000 nM	2.42 nM	< 20 nM	1.67 nM	–
COc1cc(N2CC3(CCN(C)CC3)C2)ccc1Nc1ncc(Cl)c(Oc2cccc3c2C(=O)N(C)C32COC2)n1 [Compound 216]	> 2000 nM	5 to 50 nM	< 20 nM	–	–
COc1cc(N2CC3(CCN(C)CC3)C2)c(F)cc1Nc1ncc(Cl)c(Oc2cccc3c2C(=O)N(C)C32COC2)n1 [Compound 217]	> 2000 nM	5 to 50 nM	< 20 nM	–	–
COc1cc(C(=O)NC2CCN(C)CC2)c(F)cc1Nc1ncc(Cl)c(Oc2cccc3c2C(=O)N(C)C32COC2)n1 [Compound 218]	> 2000 nM	> 50 nM	< 20 nM	–	–
